In US20230382895A1, “CRYSTALLINE FORM III OF MELANOCORTIN RECEPTOR AGONIST COMPOUND AND PREPARATION METHOD THEREFOR” (LG CHEM, LTD., priority 2020, published 2023):
Entries after “also recorded” stand apart in the source; their conditions may differ. Counter-ions that a name gives are not always drawn.

Test: Stability assessment by HPLC after storage under accelerated (40° C., 75% RH, open) or harsh (80° C., sealed) condition
Assay type: physicochemical
Details: for Stability (HPLC), Open AOC: open state, accelerated condition (40° C., 75% RH); for Stability (HPLC), Closed STR: sealed state, harsh condition, oven at 80° C.
Method: About 10-30 mg of the sample was stored for 4 weeks in an open state under the accelerated condition (40° C., 75% RH) or in a sealed state under the harsh condition in an oven at 80° C. [table]

CC(C)C(=O)N([C@H]1C[C@@H](C(=O)N2CCOCC2)N(C(=O)[C@@H]2CN(C(C)(C)C)C[C@H]2c2ccc(Cl)cc2)C1)[C@H]1CC[C@@H](C)CC1 [Example 1, Is7-((3S,5S)-1-((3S,4R)-1-(tert-butyl)-4-(4-chlorophenyl)pyrrolidine-3-carbonyl)-5-(morpholine-4-carbonyl)pyrrolidin-3-yl)-N-((is, 4R)-4-methylcyclohexyl) isobutyramide hydrochloride]
Chemical stability for 4 weeks (4 weeks, accelerated condition (40° C., 75% RH) and harsh condition (80° C.), listed as crystalline form III, hydrochloride): showed chemical stability; also recorded: exhibited chemical stability | Stability (HPLC), Initial (Initial, before storage, in % (unit assumed)): 99.68 | Stability (HPLC), Open AOC (Week 2, in % (unit assumed)): 89.27 | Stability (HPLC), Closed STR (Week 2, in % (unit assumed)): 99.11 | Stability (HPLC), Open AOC (Week 4, in % (unit assumed)): 99.26 | Stability (HPLC), Closed STR (Week 4, in % (unit assumed)): 98.76
